Experimental data: patent US10597409B2, “Water-soluble triazapyridinophane-based complexing agents and corresponding fluorescent lanthanide complexes” (CISBIO BIOASSAYS, priority 2015, dated 2020)

Legend:
[1] = Solubility in H2O (biological and buffer media); type: physicochemical; conditions: for Solubility in H2O: yes/no
[2] = Photophysical measurements of the lanthanide complexes (absorption, emission, brightness, lifetime); type: physicochemical

SMILES | Solubility in water (biological and buffer media) [1] | Solubility in H2O [1] | Absorption λmax [2] [nm] | Brightness ε × Φ (H2O) ([2]; in H2O) | Lifetime τH2O ([2]; in H2O) [ms]
O=C(O)CN1Cc2cccc(n2)CN(CC(=O)O)Cc2cccc(n2)CN(CC(=O)O)Cc2cccc(n2)C1 [Pyridinophane] | soluble in water | yes | 267 | 564 | 0.78
COC(=O)COc1cc(OC)c(-c2cc3nc(c2)CN(CC(=O)O)Cc2cc(-c4c(OC)cc(OCC(=O)OC)cc4OC)cc(n2)CN(CC(=O)O)Cc2cc(-c4ccc(OCCCN)cc4)cc(n2)CN(CC(=O)O)C3)c(OC)c1 [Complex 63] | insoluble in water | no | 328 | – | –
COC(=O)COc1ccc(C#Cc2cc3nc(c2)CN(CC(=O)O)Cc2cc(C#Cc4ccc(OCC(=O)OC)cc4)cc(n2)CN(CC(=O)O)Cc2cc(C#Cc4ccc(OCCCN)cc4)cc(n2)CN(CC(=O)O)C3)cc1 [Complex 62] | insoluble in water | no | 320 | – | –
